The NIST ThermoML archive (doi:10.1021/je8007759)

Test: xn = mol fraction of the nth substance listed

CC1CCC(=O)O1 (stereo not given) [γ-valerolactone] + O=C=O
mass density [kg/m3], Fluid (supercritical or subcritical phases), Pycnometric method
Settings	332.9 K	337.9 K
11990 kPa, x1 = 0.01	547	–
12040 kPa, x1 = 0.01	551	–
12090 kPa, x1 = 0.01	554	–
12140 kPa, x1 = 0.01	558	–
12190 kPa, x1 = 0.01	561	–
12240 kPa, x1 = 0.01	565	–
12290 kPa, x1 = 0.01	569	–
12340 kPa, x1 = 0.01	573	–
12390 kPa, x1 = 0.01	576	–
12460 kPa, x1 = 0.01	580	–
12530 kPa, x1 = 0.01	584	–
12590 kPa, x1 = 0.01	588	–
12600 kPa, x1 = 0.15	914	–
12670 kPa, x1 = 0.01	592	–
12750 kPa, x1 = 0.15	916	–
12800 kPa, x1 = 0.01	600	–
12820 kPa, x1 = 0.05	743	–
12860 kPa, x1 = 0.05	743	–
12920 kPa, x1 = 0.05	746	–
12950 kPa, x1 = 0.01	608	–
13060 kPa, x1 = 0.05	751	–
13070 kPa, x1 = 0.1	854	–
13090 kPa, x1 = 0.15	919	–
13110 kPa, x1 = 0.01	617	–
13170 kPa, x1 = 0.1	856	–
13220 kPa, x1 = 0.05	755	–
13270 kPa, x1 = 0.1	858	–
13330 kPa, x1 = 0.01	628	–
13380 kPa, x1 = 0.05	760	–
13420 kPa, x1 = 0.1	861	–
13440 kPa, x1 = 0.15	922	–
13550 kPa, x1 = 0.05	766	–
13550 kPa, x1 = 0.1	863	–
13730 kPa, x1 = 0.1	865	–
13730 kPa, x1 = 0.15	925	–
13760 kPa, x1 = 0.05	770	–
13890 kPa, x1 = 0.1	867	–
13960 kPa, x1 = 0.05	776	–
14060 kPa, x1 = 0.1	870	–
14160 kPa, x1 = 0.05	781	–
14250 kPa, x1 = 0.15	928	–
14260 kPa, x1 = 0.1	873	–
14310 kPa, x1 = 0.1	–	841
14400 kPa, x1 = 0.05	786	–
14470 kPa, x1 = 0.1	876	844
14580 kPa, x1 = 0.1	–	846
14620 kPa, x1 = 0.15	931	–
14680 kPa, x1 = 0.05	792	–
14680 kPa, x1 = 0.1	878	–
14740 kPa, x1 = 0.1	–	848
14900 kPa, x1 = 0.1	–	851
14960 kPa, x1 = 0.05	798	–
15000 kPa, x1 = 0.15	933	–
15020 kPa, x1 = 0.1	–	852
15140 kPa, x1 = 0.1	884	–
15200 kPa, x1 = 0.1	–	855
15260 kPa, x1 = 0.05	803	–
15360 kPa, x1 = 0.1	–	857
15420 kPa, x1 = 0.1	888	–
15420 kPa, x1 = 0.15	937	–
15550 kPa, x1 = 0.05	809	–
15580 kPa, x1 = 0.1	–	859
15660 kPa, x1 = 0.1	891	–
15740 kPa, x1 = 0.1	–	862
15840 kPa, x1 = 0.15	940	–
15940 kPa, x1 = 0.1	–	864
15950 kPa, x1 = 0.1	894	–
16190 kPa, x1 = 0.1	–	868
16260 kPa, x1 = 0.1	897	–
16380 kPa, x1 = 0.15	943	–
16420 kPa, x1 = 0.1	–	871
16560 kPa, x1 = 0.1	900	–
16660 kPa, x1 = 0.1	–	874
16870 kPa, x1 = 0.1	904	–
16920 kPa, x1 = 0.1	–	877
17190 kPa, x1 = 0.1	907	–
17400 kPa, x1 = 0.1	–	883

mass density [kg/m3], 332.9 K, high pressure variable cell
Settings	x1 = 0.01	x1 = 0.05	x1 = 0.1	x1 = 0.15
Gas	486	742	–	–
Liquid	–	–	851	913

Liquid, high pressure variable cell
Settings	Critical density [kg/m3]
x1 = 0.025	679
x1 = 0.05	774
x1 = 0.1	837
